Read-outs that look alike come from different tables or passages of the source. Non-standard residues stand in square brackets, D forms with d. Residues, ends and D or L forms follow the SMILES beside them. *: point of attachment. Boc = CC(C)(C)OC(=O)*; Aib = CC(C)(N)C(=O)O; Bn = c1ccc(C*)cc1
Key:
γ-secretase [1] = target: T1, γ-secretase (Homo sapiens, UniProt P49768); test: cell-free γ-secretase assay using detergent-solubilized membranes from HeLa cells and a recombinant APP-based substrate; assay type: biochemical; parameters: detergent-solubilized membranes from HeLa cells; endogenous in cells; host or cells: HeLa cells (detergent-solubilized membranes)
Protocol: Compounds were tested in a γ-secretase assay using detergent-solubilized membranes from HeLa cells and a recombinant APP-based substrate (Table 2, 18). […] Moreover, the γ-secretase inhibition appears to show dependence on length.

[2] = test system: Aβ production in Chinese hamster ovary (CHO) cells stably transfected with human APP; test: cell-based assay of total Aβ production in CHO cells stably transfected with human APP
Source text: Based on the helical model for the APP transmembrane domain, short peptides were designed to adopt a similar conformation that block γ-secretase activity. Judicious replacement of selected residues of short APP-derived peptides with 2-aminoisobutyric acid (Aib), a known helix-inducing amino acid (19, 20), provided peptides that, in principle, mimic the γ-secretase cleavage site on one face of the helix, with Aib residues on the other face. Aib-containing peptides were identified that inhibit Aβ production in APP-transfected cells with 50 percent inhibitory concentrations (IC50's) as low as 2 μM. […] The crystal structure of this compound has been determined, and the peptide is fully helical (19). In certain embodiments the compounds of the invention have structures that are based on the partial APP sequence Val-Gly-Gly-Val-Val-Ile-Ala-Thr-Val-Ile-Val-Ile (SEQ ID NO:12; see FIG. 1). Basing the structures of the compounds of the invention on the partial APP sequence could enhance in vivo specificity of the compounds.
The top set of peptidomimetics (SEQ ID NOs: 1-5) was designed considering the cleavage leading to Aβ42, and the bottom set (SEQ ID NOs: 6-10) was designed considering the cleavage site leading to Aβ40. IC50 is the concentration of compound that reduced production of total Aβ by 50% in a cell-based assay using Chinese hamster ovary (CHO) cells stably transfected with human APP.
Starting from the reference D-decapeptide having SEQ ID NO:10 (IC50=90 nM), the enantiomers of the helical peptide L-series were tested for inhibitory activity. […] This greater than 40-fold loss of activity compared to the cell-free assay may be due to the need to enter into and/or cross cell membranes or some susceptibility to metabolic degradation.

γ-secretase [3] = target: T1, γ-secretase; conditions: photoaffinity labeling; Kornilova et al. 2005; cited from earlier work
γ-secretase [4] = target: T1, γ-secretase; parameters: detergent-solubilized membranes from HeLa cells; endogenous in cells; host or cells: HeLa cells (detergent-solubilized membranes); conditions: value from Ref. 22, cited from earlier work
[5] = APP-transfected CHO cells, read-out: IC50, cell-based assay
[6] = 50% inhibition of Aβ40 production, at least three independent experiments, read-out: Cell-free Assay IC50
[7] = CHO cells stably transfected with human APP, total Aβ, read-out: IC50 (concentration that reduced production of total Aβ by 50%)

## CC[C@@H](C)[C@@H](NC(=O)[C@H](NC(=O)[C@H](NC(=O)C(C)(C)NC(=O)CNC(=O)[C@H](NC(=O)OC(C)(C)C)C(C)C)C(C)C)C(C)C)C(=O)NC(C)(C)C(=O)N[C@@H](C(=O)N[C@@H](C(=O)NC(C)(C)C(=O)N[C@@H](C(=O)N[C@@H](C(=O)NC(C)(C)C(=O)OC)[C@H](C)CC)C(C)C)C(C)C)[C@H](C)OCc1ccccc1 [SEQ ID NO:18 D-peptide, Boc-Val-Gly-Aib-Val-Val-Ile-Aib-Thr(OBz)-Val-Aib-Val-Ile-Aib-OMe] (Boc-[dV]G[Aib][dV][dV][dI][Aib][dT](Bn)[dV][Aib][dV][dI][Aib]-OMe)
γ-secretase [1]
  IC50, in words: subnanomolar
γ-secretase [1]; D-series, cell-free assay
  times more active than the other analogs of the D-series: 100 times
γ-secretase [1]; read-out: IC50, cell-free γ-secretase assay
  IC50: 0.00014 µM
[2]; [5]
  IC50: 0.009 ± 0.001 µM
[2]; cell-based vs cell-free IC50
  loss of activity in cell-based assay compared to the cell-free assay: greater than 40 fold

## CC[C@@H](C)[C@@H](NC(=O)[C@H](NC(=O)[C@H](NC(=O)C(C)(C)NC(=O)CNC(=O)[C@H](NC(=O)C(C)(C)NC(=O)[C@@H](CC(C)C)NC(=O)CNC(=O)OC(C)(C)C)C(C)C)C(C)C)C(C)C)C(=O)NC(C)(C)C(=O)N[C@@H](C(=O)N[C@@H](C(=O)NC(C)(C)C(=O)N[C@@H](C(=O)N[C@@H](C(=O)NC(C)(C)C(=O)OC)[C@H](C)CC)C(C)C)C(C)C)[C@H](C)OCc1ccccc1 [SEQ ID NO:21 D-peptide, Boc-Gly-Leu-Aib-Val-Gly-Aib-Val-Val-Ile-Aib-Thr(OBz)-Val-Aib-Val-Ile-Aib-OMe] (Boc-G[dL][Aib][dV]G[Aib][dV][dV][dI][Aib][dT](Bn)[dV][Aib][dV][dI][Aib]-OMe)
γ-secretase [1]; [6]
  IC50: 0.026 ± 0.021 µM

## CC[C@H](C)[C@H](NC(=O)[C@@H](NC(=O)[C@@H](NC(=O)C(C)(C)NC(=O)CNC(=O)[C@@H](NC(=O)C(C)(C)NC(=O)[C@H](CC(C)C)NC(=O)CNC(=O)OC(C)(C)C)C(C)C)C(C)C)C(C)C)C(=O)NC(C)(C)C(=O)N[C@H](C(=O)N[C@H](C(=O)NC(C)(C)C(=O)N[C@H](C(=O)N[C@H](C(=O)NC(C)(C)C(=O)OC)[C@@H](C)CC)C(C)C)C(C)C)[C@@H](C)OCc1ccccc1 [SEQ ID NO:21 L-peptide, Boc-Gly-Leu-Aib-Val-Gly-Aib-Val-Val-Ile-Aib-Thr(OBz)-Val-Aib-Val-Ile-Aib-OMe] (Boc-GL[Aib]VG[Aib]VVI[Aib]T(Bn)V[Aib]VI[Aib]-OMe)
γ-secretase [1]; [6]
  IC50: 11 µM

## Ac-Val-Gly-Aib-Val-Val-Ile-Aib-Thr(OBz)-Val-Aib-Val-Val-Aib-NH2 (Ac-VG[Aib]VVI[Aib]XV[Aib]VV[Aib]-NH2; not fully specified (some residues); printed as Ac-Val-Gly-Aib-Val-Val-Ile-Aib-Thr(OBz)-Val-Aib-Val-Val-Aib-NH2) [SEQ ID NO:23 D-peptide]
γ-secretase [3]
  site of interaction with γ-secretase: not only interact with the initial substrate-binding site but also extend into the active site

## Boc-Aib-Ile-Ala-Thr(OBz)-Aib-Ile-Val-Aib-OMe [SEQ ID NO:3]
[2]; [7]
  IC50: 10 µM

## Boc-Aib-Val-Val-Ile-Aib-Thr(OBz)-Val-Aib-OMe [SEQ ID NO:8]
[2]; [7]
  IC50: 6 µM

## Boc-Ala-Thr(OBz)-Aib-Ile-Val-Aib-OMe [SEQ ID NO:1]
[2]; [7]
  IC50: 25 µM

## Boc-D-Val-Gly-Aib-D-Val-D-Val-D-BPA-Aib-D-Thr(OBz)-D-Val-Aib-OMe [SEQ ID NO:11]
[2]; [5]
  IC50: 0.1 µM

## Boc-Gly-Aib-Val-Val-Ile-Aib-Thr(OBz)-Val-Aib-OMe [SEQ ID NO:9]
[2]; [7]
  IC50: 3 µM

## Boc-Gly-Val-Aib-Ile-Ala-Thr(OBz)-Aib-Ile-Val-Aib-OMe [SEQ ID NO:5]
[2]; [7]
  IC50: 5 µM

## Boc-Ile-Ala-Thr(OBz)-Aib-Ile-Val-Aib-OMe [SEQ ID NO:2]
[2]; [7]
  IC50: 15 µM

## Boc-Val-Aib-Ile-Ala-Thr(OBz)-Aib-Ile-Val-Aib-OMe [SEQ ID NO:4]
[2]; [7]
  IC50: 2 µM

## Boc-Val-Gly-Aib-Val-Val-Ile-Aib-Thr(OBz)-Val-Aib-OMe [SEQ ID NO:10 D-peptide]
γ-secretase [4]; 50% inhibition of Aβ40 production, read-out: Cell-free Assay IC50
  IC50: 0.09 µM
γ-secretase [3]
  site of interaction with γ-secretase: interacts with the initial substrate-binding site, but not the active site

## Boc-Val-Gly-Aib-Val-Val-Ile-Aib-Thr(OBz)-Val-Aib-OMe [SEQ ID NO:10 L-peptide]
γ-secretase [4]; reference decapeptide, read-out: IC50, cell-free γ-secretase assay
  IC50: 30 µM
[2]; [7]
  IC50: 3 µM

## Boc-Val-Ile-Aib-Thr(OBz)-Val-Aib-OMe [SEQ ID NO:6]
[2]; [7]
  IC50: 12 µM

## Boc-Val-Val-Ile-Aib-Thr(OBz)-Val-Aib-OMe [SEQ ID NO:7]
[2]; [7]
  IC50: 6 µM
